According to patent publication US5196410A, “Transdermal flux enhancing compositions” (priority 1991, dated 1993):
In brackets after ≈: the same amount, converted by molar mass. Read-outs that look alike come from different tables or passages of the source.

Tests used:
[1] = assay type: in vitro ADME, porcine
Protocol: Samples were removed periodically from the receiver side of the diffusion cell, mixed with a Z0 scintillation cocktail (Scintisol, Isolabs, Inc., Akron, OH) and counted for several minutes in a liquid scintillation counter (Model Mark III-6881, Tracor Analytical, Elk Grove Village, IL). Following an initial lag time of about 6 hours, the amount of
salicylic acid appearing in the receiver side was linear with time for the duration of the experiment (routinely 24 to 48 hours). […] This value, when divided by the specific acitivity of salicyclic acid in the saturated solution (approximately 300 dpm/mg) and the area of exposed skin (0.2 cm^2), yielded the flux (mg/cm^2/ hr). Samples removed from the donor side at the beginning and end of the experiment contained, within error, the same amount of salicylic acid. Thus, constant concentration of the permeant was maintained on the donor side throughout the experiment.

[2] = Infrared spectra of fatty acid treated porcine stratum corneum; details: C-H antisymmetric stretching, stratum corneum treated with […] fatty acid in ethanol, 30% (w/w) water
Protocol: (§1) Stratum corneum sheets were prepared from porcine skin by trypsin treatment. Thus, full thickness porcine skin samples were dermatomed to 350 μm thickness and spread, stratum corneum side up, on filter paper saturated with 0.5% crude trypsin in phosphate buffered saline at pH 7.4 (Sorensen's buffer). After several hours at 37° C. the stratum corneum was peeled away, washed in soybean trypsin inhibitor, water and air dried. Samples were stored desiccated at room temperature until used. Prior to use, dry skin samples of known weight were incubated for two hours in an 0.15M solution of the appropriate fatty acid in ethanol, the samples were then washed for ten seconds in ethanol, spread on wire mesh, dried over a desiccant and the dry sample reweighed. The stratum corneum samples were then held for several days in a chamber at 22° C., 95% relative humidity, during which the stratum corneum samples equilibrated to a water content of 30% (w/w).
Infrared spectra were obtained with a Fourier Transform Infrared Spectrometer^4 (FTIR) equipped with a liquid nitrogen cooled mercury-cadmium telluride detector. In order to prevent water loss, hydrated samples were sealed between zinc sulfide windows while maintained at 22° C., 95% relative humidity. Sealed samples were placed in the spectrometer where an average of 127 scans were obtained in about six minutes for each of the fatty acid treatments. The digitized data were transferred to a computer (Apple IIe) for determination of frequency and bandwidth of the C--H antisymmetric stretching absorbance. Due to the digital nature of the FTIR instrument, absorbance and frequency data exist only in discrete increments. With the instrument used, the exact value of any frequency point could only be determined with a precision not greater than 2.7 cm^-1. The peak frequency was estimated with much greater precision, however, using a center of gravity algorithm for digitized data reported by Cameron et al., Applied Spectr., 36 245-250 (1982).

[3] = Differential scanning calorimetry of fatty acid treated porcine stratum corneum; details: stratum corneum treated with […] fatty acid in ethanol, 30% (w/w) water
Protocol: as §1
(§2) The differential scanning calorimeter^5 was used at a scan rate of 0.75° C./minute. Duplicate samples from each of the above FTIR experiments were combined for DSC measurements. Alternately, stratum corneum samples of known weight (about 20 mg) were treated with each fatty acid in the same manner described above. Treated samples were hydrated for several days at 95% R.H., 22° C. and reweighed.

[4] = Lipid transition temperature of porcine stratum corneum by DSC in vehicles containing oleic acid
Protocol: as §1, with “dry skin samples of known weight were incubated for two hours in an 0.15M solution of the appropriate” left out
as §2

physchem = details: […] oleic acid, organic solvent or mixture
[5] = Protocol: The in vitro flux of piroxicam was measured from ethanol/buffer vehicles containing 0.25% v/v (0.224% w/v) cis-9-octadecenoic acid (oleic acid). The buffer employed was Sorensen's Buffer, pH 7.3-7.4^3, all experiments were carried out at 32° C. […] Buffer only was introduced into the chamber (receiver) in contact with the internal side of the skin. The donor chamber, in contact with the outer side of the skin was filled with the appropriate ethanol/buffer vehicle containing 0.25% v/v cis-9-octadecenoic acid (oleic acid) and an excess of piroxicam.
[6] = for Flux: SD in parentheses
[7] = saturated salicylic acid in ethanol with […] of the fatty acid, 32° C.

Structure (SMILES): CCCCCC/C=C/CCCCCCCCCC(=O)O [trans-vaccenic, trans-vaccenic acid]
- Flux of Salicylic Acid [1, 7]: 1.11 mg/cm^2 /hr
- Peak IR Frequency [2]: 2920 cm⁻¹
- DSC Tm (temperature of the transition maximum) [3]: 61.0 °C

Structure (SMILES): CCCCCCCCCCC/C=C\CCCCC(=O)O [Petroselenic]
- Flux of Salicylic Acid [1]: 0.79 mg/cm^2 /hr
- Peak IR Frequency [2]: 2919.0 cm⁻¹
- DSC Tm (temperature of the transition maximum) [3]: 60.5 °C

Structure (SMILES): CCCCCCCC/C=C\CCCCCCCC(=O)O [Oleic Acid, cis-9-octadecenoic acid]
- Flux of Salicylic Acid [1]: 3.81 mg/cm^2 /hr
- flux of salicylic acid (in words) [1]: significantly greater
- Lipid Transition Temperature, Tm ([4]; 0/100 PEG 200/0.1M Tris buffer (pH 6.8-7.3), […] v/v oleic acid): 59 °C
- Lipid Transition Temperature, Tm ([4]; 0/100 ethanol/0.1M Tris buffer (pH 6.8-7.3), […] v/v oleic acid): 58 °C
- Lipid Transition Temperature, Tm ([4]; 0/100 glycerin/0.1M Tris buffer (pH 6.8-7.3), […] v/v oleic acid): 58 °C
- Lipid Transition Temperature, Tm ([4]; 0/100 v/v ethanol/Sorensen's buffer pH 7.3, […] v/v oleic acid): 57.5 °C
- Lipid Transition Temperature, Tm ([4]; 20/40/40 ethanol/PG/0.1M Tris buffer (pH 6.8-7.3), […] v/v oleic acid): 55 °C
- Lipid Transition Temperature, Tm ([4]; 20/80 PEG 200/0.1M Tris buffer (pH 6.8-7.3), […] v/v oleic acid): 59 °C
- Lipid Transition Temperature, Tm ([4]; 20/80 ethanol/0.1M Tris buffer (pH 6.8-7.3), […] v/v oleic acid): 59 °C
- Lipid Transition Temperature, Tm ([4]; 20/80 glycerin/0.1M Tris buffer (pH 6.8-7.3), […] v/v oleic acid): 62.5 °C
- Lipid Transition Temperature, Tm ([4]; 20/80 v/v ethanol/Sorensen's buffer pH 7.3, […] v/v oleic acid): 54.5 °C
- Lipid Transition Temperature, Tm ([4]; 30/70 v/v ethanol/Sorensen's buffer pH 7.3, […] v/v oleic acid): 54.0 °C
- Lipid Transition Temperature, Tm ([4]; 33/33/34 ethanol/PG/0.1M Tris buffer (pH 6.8-7.3), […] v/v oleic acid): 59 °C
- Lipid Transition Temperature, Tm ([4]; 34/66/0 ethanol/PG/0.1M Tris buffer (pH 6.8-7.3), […] v/v oleic acid): 61 °C
- Lipid Transition Temperature, Tm ([4]; 40/20/40 ethanol/PG/0.1M Tris buffer (pH 6.8-7.3), […] v/v oleic acid): 58.5 °C
- Lipid Transition Temperature, Tm ([4]; 40/40/20 ethanol/PG/0.1M Tris buffer (pH 6.8-7.3), […] v/v oleic acid): 60 °C
- Lipid Transition Temperature, Tm ([4]; 40/60 PEG 200/0.1M Tris buffer (pH 6.8-7.3), […] v/v oleic acid): 57.5 °C
- Lipid Transition Temperature, Tm ([4]; 40/60 ethanol/0.1M Tris buffer (pH 6.8-7.3), […] v/v oleic acid): 55 °C
- Lipid Transition Temperature, Tm ([4]; 40/60 glycerin/0.1M Tris buffer (pH 6.8-7.3), […] v/v oleic acid): 57 °C
- Lipid Transition Temperature, Tm ([4]; 40/60 v/v ethanol/Sorensen's buffer pH 7.3, […] v/v oleic acid): 53.2 ± 0.6 °C
- Lipid Transition Temperature, Tm ([4]; 50/50 v/v ethanol/Sorensen's buffer pH 7.3, […] v/v oleic acid): 55.1 °C
- Lipid Transition Temperature, Tm ([4]; 60/40 PEG 200/0.1M Tris buffer (pH 6.8-7.3), […] v/v oleic acid): 57 °C
- Lipid Transition Temperature, Tm ([4]; 60/40 ethanol/0.1M Tris buffer (pH 6.8-7.3), […] v/v oleic acid): 59 °C
- Lipid Transition Temperature, Tm ([4]; 60/40 glycerin/0.1M Tris buffer (pH 6.8-7.3), […] v/v oleic acid): 54 °C
- Lipid Transition Temperature, Tm ([4]; 60/40 v/v ethanol/Sorensen's buffer pH 7.3, […] v/v oleic acid): 53.4 °C
- Lipid Transition Temperature, Tm ([4]; 66/34/0 ethanol/PG/0.1M Tris buffer (pH 6.8-7.3), […] v/v oleic acid): 60 °C
- Lipid Transition Temperature, Tm ([4]; 70/30 v/v ethanol/Sorensen's buffer pH 7.3, […] v/v oleic acid): 58.8 °C
- Lipid Transition Temperature, Tm ([4]; 80/20 PEG 200/0.1M Tris buffer (pH 6.8-7.3), […] v/v oleic acid): 61 °C
- Lipid Transition Temperature, Tm ([4]; 80/20 ethanol/0.1M Tris buffer (pH 6.8-7.3), […] v/v oleic acid): 61 °C
- Lipid Transition Temperature, Tm ([4]; 80/20 glycerin/0.1M Tris buffer (pH 6.8-7.3), […] v/v oleic acid): 59 °C
- Lipid Transition Temperature, Tm ([4]; 100/0 v/v ethanol/Sorensen's buffer pH 7.3, […] v/v oleic acid): 66.4 °C
- DSC Tm (temperature of the transition maximum) [3]: 59.0 ± 1.5 °C

Structure (SMILES): CCCCCCCCCCC/C=C/CCCCC(=O)O [Petroseladic]
- Flux of Salicylic Acid [1]: 0.97 mg/cm^2 /hr
- Peak IR Frequency [2]: 2919.0 cm⁻¹
- DSC Tm (temperature of the transition maximum) [3]: 62.0 °C

Structure (SMILES): CN1C(C(=O)Nc2ccccn2)=C(O)c2ccccc2S1(=O)=O [Piroxicam, 4-hydroxy-2-methyl-N-2-pyridinyl-2H-1,2-benzothiazine-3-carboxamide 1,1-dioxide]
- solubility (physchem; 0/100 ethanol/buffer): 0.04 mg/mL (≈ 121 µM)
- solubility (physchem; 10/90 ethanol/buffer): 0.19 mg/mL (≈ 573 µM)
- solubility (physchem; 20/80 ethanol/buffer): 0.46 mg/mL (≈ 1390 µM)
- solubility (physchem; 30/70 ethanol/buffer): 0.71 mg/mL (≈ 2140 µM)
- solubility (physchem; 40/60 ethanol/buffer): 1.2 mg/mL (≈ 3620 µM)
- solubility (physchem; 50/50 ethanol/buffer): 1.5 mg/mL (≈ 4530 µM)
- solubility (physchem; 100/0 ethanol/buffer): 1.2 mg/mL (≈ 3620 µM)

Structure (SMILES): CCCCCCCCCCCCCCCCCC(=O)O [Stearic, stearic acid]
- Flux of Salicylic Acid [1, 7]: 1.21 mg/cm^2 /hr
- Peak IR Frequency [2]: 2918.0 ± 0.4 cm⁻¹
- Peak IR Frequency ([2]; listed as stearic acid): 2918 to 2919 cm⁻¹
- DSC Tm (temperature of the transition maximum) [3]: 62.5 ± 1.0 °C

Structure (SMILES): CC(C)Cc1ccc(C(C)C(=O)O)cc1 (centres unmarked) [Ibuprofen, 2-(4-isobutylphenyl)propionic acid]
- Relative Flux ([5]; 0/100 v/v ethanol/buffer, […] v/v oleic acid (reference)): 1.0
- Relative Flux ([5]; 20/80 v/v ethanol/buffer, […] v/v oleic acid, relative to 0/100 ethanol/buffer): 1.5
- Relative Flux ([5]; 30/70 v/v ethanol/buffer, […] v/v oleic acid, relative to 0/100 ethanol/buffer): 1.8
- Relative Flux ([5]; 40/60 v/v ethanol/buffer, […] v/v oleic acid, relative to 0/100 ethanol/buffer): 3.5
- Relative Flux ([5]; 50/50 v/v ethanol/buffer, […] v/v oleic acid, relative to 0/100 ethanol/buffer): 5
- Relative Flux ([5]; 60/40 v/v ethanol/buffer, […] v/v oleic acid, relative to 0/100 ethanol/buffer): 4.5
- Relative Flux ([5]; 70/30 v/v ethanol/buffer, […] v/v oleic acid, relative to 0/100 ethanol/buffer): 4.5
- Relative Flux ([5]; 100/0 v/v ethanol/buffer, […] v/v oleic acid, relative to 0/100 ethanol/buffer): 4.5

Structure (SMILES): CCCCCC/C=C\CCCCCCCCCC(=O)O [cis-vaccenic, cis-11-octadecenoic acid]
- flux of salicylic acid (in words) ([1]; difference relative to the controls and trans-vaccenic acid): even greater
- Flux of Salicylic Acid [1, 7]: 5.53 mg/cm^2 /hr
- DSC Tm (temperature of the transition maximum) [3]: 57.0 °C

Structure (SMILES): Cc1cnc(C(=O)NCCc2ccc(S(=O)(=O)NC(=O)NC3CCCCC3)cc2)cn1 [Glipizide]
- Flux ([6]; 20% v/v ethanol, 0.5% v/v Azone, 6.8 mg/ml, pH 8.8): 55.9 (38.8) mg/day/30 cm^2
- Flux ([6]; 20% v/v ethanol, no Azone, 6.7 mg/ml, pH 8.9): 0.4 (0.04) mg/day/30 cm^2
- Flux ([6]; 30% v/v ethanol, 0.5% v/v Azone, 8.1 mg/ml, pH 8.8): 101.4 (10.3) mg/day/30 cm^2
- Flux ([6]; 30% v/v ethanol, no Azone, 8.2 mg/ml, pH 8.9): 0.6 (0.2) mg/day/30 cm^2
- Flux ([6]; 55% v/v ethanol, 0.5% v/v Azone, 17.5 mg/ml, pH 8.8): 30.8 (6.5) mg/day/30 cm^2
- Flux ([6]; 55% v/v ethanol, no Azone, 17.9 mg/ml, pH 9.1): 2.7 (0.5) mg/day/30 cm^2
- in vitro transport ([6]; range over vehicles): 30.8 to 101.4 mg/day/30 cm^2

Structure (SMILES): NC(CO)(CO)CO [Tris]
- effect on oleic acid's action on stratum corneum lipids ([4]; concentration dependent): reduces the effect of oleic acid on stratum corneum lipids
